“Also recorded” adds a separate entry of the source. Counter-ions that a name gives are not always drawn. Like-named read-outs stand apart in the source and are kept apart here.
Assays:
[1] = system: C. elegans larvae (ΔΔdjr, glod-4)
Method: (A) The differential expression of djr-1.1, djr-1.2 and glod-4 was tested by RT-PCR in four replicates. […] (B) Length of the worms treated with PQ^2+. Bars and error bars show the mean and SD, respectively. […] Every strain was compared to its control at different PQ^2+ concentrations by two-way ANOVA followed by Tukey's honestly significant differences (HSD) test. (C) Worm larvae treated with PQ or control. Scale bar, 250 μm. (D) survival of the worm larvae treated with 200 μM paraquat and 1 mM of the Indicated supplements. Bars and error bars show the mean and SD, respectively. […] Every strain was compared to its own control by two-way ANOVA followed by Tukey's HSD test. Data were normalized by Freeman-Tukey's double arcsine transformation prior to ANOVA. *p<0.05; **p<0.01; ***p<0.001.
All C. elegans strains were maintained on NGM agar plates seeded with Escherichia coli NA22 at 15° C. […] Mutant strains djr-1.1(tm918), djr-1.2(tm951) and glod4(tm1266) were obtained from National Bioresource Project, Japan. Wild type (N2) and daf-2 mutant strains were obtained from Caenorhabditis Genetics Center, USA. All mutants were outcrossed at least twice. DJ-1 double mutant djr-1.1(tm918), djr-1.2(tm951), abbreviated as ΔΔdjr, was achieved by crossing both single mutants. This strain was then further crossed to daf-2 to generate daf-2; ΔΔdjr triple mutant.

DJ-1 RNAi HeLa cells [2] = assay type: cell-based, human; details: for rescue of the circular mitochondrial phenotype: paraquat-treated DJ-1 RNAi HeLa cells, supplements for 24 hours
Method: (§1) HeLa-Kyoto cells stably expressing histone H2B-EGFP and mCherry-CAAX (clone 2B4), their parental cells, and HeLa-Kyoto expressing mouse DJ-1 transgene were used. Also, mouse embryonic fibroblast (MEF) (Pham et al., 2010) cells were used. Cells were maintained in DMEM supplemented with 10% fetal bovine serum (FBS), 2 mM GlutaMAX, 100 unit/ml penicillin, 100 μg/ml streptomycin, plus additional antibiotics for the transgene (0.5 mg/ml Geneticin for H2B-EGFP and mouse DJ-1 BAC transgene; 0.5 pug/ml puromycin for mCherry-CAAX), at 37° C. in a 5% CO2 environment. The DMEM with high glucose (5 g/1) was used unless specifically mentioned (e.g. FIG. 14). For atomic force microscopy (AFM) measurements of mammalian cells, a CO2-independent medium containing 4 mM sodium bicarbonate and 20 mM HEPES Was used. HeLa Cells Were RNAi-transfected with 160 nM endoribonuclease-digested small interfering RNA (MISSION esiRNA, Sigma) using oligofectamine reagent (Invitrogen). Paraquat (PQ^2+) was added 24 hours after RNAI. Cells were assayed after 48 hours from RNAI.
To film the osmotically challenged HeLa cells, a DeltaVision system (Applied Precision) was used, equipped with an Olympus IX-71 Inverted microscope and a 40× (UPIanApo, NA=1.00) objective. Time-lapse images were acquired at 1-min intervals except during osmotic shock treatment (equal volume of water for hypotonic shock; equal volume of the AFM medium containing 2.86% (w/v) xylose for hypertonic shock). Deconvolved and maximally projected images were analyzed manually on Image.J to annotate the radius and the volume of the round objects (i.e. mitotic cells), assuming that the cells were spherical (Stewart et al., 2011). To image mitochondria of HeLa cells, MitoTracker Red CMXRos was added at 150 nM and fixed with 3% (v/w) paraformaldehyde in PBS, 1 mM MgCl2, and 5 mM EGTA. Chromatin was counter-stained by 1 μg/ml Hoechst33342. They were imaged on the DeltaVision system using a 60× objective (PlanApo N, NA=1.42, Olympus), and deconvolved and maximally projected images were used for the analysis. Due to high background of MitoTracker in the center of the cell, mitochondria in a 15×15 um area in the periphery were manually annotated on Image.J software.

[3] = system: C. elegans ΔΔdjr double mutant and glod-4 single mutant larvae; assay type: in vivo
Method: (Brenner, 1974). […] All mutants were outcrossed at least twice.
Mitochondria staining was performed as previously described. Briefly, MitoTracker Deep Red or CMXROS (M22426, M7512, Life Technologies) were dissolved in DMSO at a concentration of 5 mM and kept at −20° C. as a stock solution. On the day of microscopy worms were incubated in a 1:1000 diluted MitoTracker for 45 min at room temperature. Worms were then paralyzed with 1 mM Levamizol (Sigma-Aldrich), placed on slides covered with a thin layer of NGM medium on top of which the coverslip (22×22 mm, Menzel-Glaser #1) was fixed using nail lack.
Microscopy images from live paralyzed worm larvae stained with MitoTracker were taken using a confocal microscope (LSM510, Zeiss, Germany). Samples were excited using a 514 (MitoTracker CMXRos) or a 647 (MitoTracker Deep Red) nm lasers and two channels, one BP505-550 or LP650 and the BF channel were used to acquire the images. Gain was maintained between 450 and 515 for all samples to ensure the detection of signal intensity differences.

[4] = toxicology study; cited from earlier work
[5] = estimated; cited from earlier work
DJ-1 RNAi HeLa cells [6] = assay: Mitotic rounding pressure of DJ-1 RNAi HeLa cells (AFM microcantilever); assay type: cell-based, human; details: for rescue of the reduced rounding pressure of mitotic DJ-1 RNAi cells: HeLa, substance added to medium, concentration not given; for rescue of the lower pressure phenotype in low or no glucose medium: HeLa kept 2 or more passages in low or no glucose medium before RNAi, measured 1 hour after addition; for rescue of the lower pressure phenotype at 10 mM: RNAi-treated mitotic HeLa cells, 10 mM supplement
Method: as §1
(§2) Cell rounding pressure analysis with microcantilevers Cells were grown on a glass-base dish (FD35, World Precision Instruments) with a silicon spacer, which was prepared from μ-Chamber 12 well (ibidi), in the center. Medium was replaced with the CO2-independent medium, then the dish was mounted on the stage of a light microscope (AxioObserver Z1 or Axiovert200, Zeiss) equipped with a 20× objective (Plan Apochromat, NA=0.80). To measure the force of the mitotic cell, a tipless microcantilever (NSC12/CSC37-B with a nominal spring constant of 0.3 N/m, MikroMasch, Estonia) mounted on a glass block of the AFM head (NanoWizard I or II, JPK instruments, Berlin) was used. Setup and calibration were done before every experiment; see Stewart et al (Stewart at al., 2012) for the details of the procedures. In a quick force measurement illustrated in FIG. 5A, the cantilever was set at […] above the glass dish and moved over the mitotically arrested cells to measure the equilibrium force. Measuring the cellular force and pressure through mitosis was done as described (Stewart at al., 2012, Stewart at al., 2011). Otherwise the cell pressure and volume were measured in a constant-height assay, as illustrated in FIG. 5B: the cantilever was first set at 14 μm height and placed over a metaphase cell to record rounding force. The cantilever was then brought down to 8 μm height at 0.1 μmu/sec, to measure peak and equilibrium forces. The maximal cross-section area of the cell was measured from the DIC or mCherry-CAAX image to calculate cell pressure and volume. Calculation of cell pressure and volume, and the contact area to the Cantilever was done as described (Stewart et al., 2012; Stewart et al., 2011). In every experiment, RNAi penetrance was confirmed by lower pressure of MYH9 RNAI-treated cells (Toyoda at al., 2011).

[7] = system: mitotic MEF cells (wild type and DJ-1 knock-out); assay: Mitotic rounding pressure of mouse embryonic fibroblasts (AFM); assay type: cell-based; details: for rescue of the reduced rounding pressure of mitotic DJ-1-deficient MEFs: DJ-1 knock-out MEFs, concentration not given; for rescue of the lower pressure phenotype at 10 mM: mitotic DJ-1 KO MEF cells, measured after 1 hour; for rescue of the lower pressure phenotype at 10 mM / effect on pressure of mitotic WT MEFs (negative effects on cell mechanics): 10 mM supplement; for effect on pressure of mitotic WT MEFs (negative effects on cell mechanics): wild type MEFs
Method: as §1, §2

[8] = system: primary mesencephalic dopaminergic neurons from wild type mouse embryos; assay: In vitro survival of primary dopaminergic (TH+) neurons, wild type; assay type: cell-based; details: 3 mM glucose, 10 mM GA, 10 mM DL, 10 mM LL, TH+ cells relative to no supplement
Method: (§3) Briefly, brain mesencephalons from E14.5 C57JBL6 or DJ-1 embryos were dissected under the microscope and digested with Trypsin-EDTA (Sigma-Aldrich). The trypsin reaction was stopped by adding the basic medium (BM) containing Neurobasal A medium (Gibco), 1 mg/ml penicillin/streptomycin, 10% (v/v) fetal calf serum (Invitrogen) and 2 mM L-glutamine and cells were mechanically dissociated using a fire-polished Pasteur pipette. Medium was fully replaced by centrifuging for 5 min. at 1200 rpm, aspiring the supernatant and adding 8 ml of the fresh BM to the pellet. […] The same volume of medium containing the different treatment substances was added 4 hours after plating to obtain the following treatment concentrations: control, 3 mM glucose, 10 mM GA, 10 mMDL and 10 mM LL. 24 hours later ⅓ of the medium was replaced with fresh BM. On DIV3 (day-in-vitro-culture 3) half of the medium was replaced with B27 medium containing Neurobasal A medium, 1 mg/ml penicillin/streptomycin, 2 mM L-Glutamine (Sigma-Aldrich) and B-27 supplement (Life Technologies) and on DIV5 all medium was replaced by B27 medium.
(§4) Dopaminergic TH^+ neurons were observed using an inverted fluorescence microscope (Axiovert 200M, Zeiss) under a 10× objective (PlanApo, NA=0.45). The diameter of every well was scanned in two perpendicular directions (i.e. top to bottom and left to right) and total TH^+ neurons were counted for every well.

[9] = system: dopaminergic neurons from DJ-1 knock out mice; assay: In vitro survival of primary dopaminergic (TH+) neurons, DJ-1 knock out; assay type: cell-based, mouse; details: DJ-1 KO/mutant; 3 mM glucose, 10 mM GA, 10 mM DL
Method: as §3, §4

[10] = system: DJ-1 GLO1 double RNAi-treated cells; assay: Mitotic rounding pressure of DJ-1 GLO1 double RNAi-treated cells (AFM); assay type: cell-based, human; details: both glyoxalases DJ-1 and GLO1 knocked down
Method: as §1, with “HeLa Cells Were RNAi-transfected with 160 nM endoribonuclease-digested small interfering RNA (MISSION esiRNA, Sigma) using oligofectamine reagent (Invitrogen). Paraquat (PQ^2+) was added 24 hours after RNAI. Cells were assayed after 48 hours from RNAI.” left out
Cell rounding pressure analysis with microcantilevers Cells were grown on a glass-base dish (FD35, World Precision Instruments) with a silicon spacer, which was prepared from μ-Chamber 12 well (ibidi), in the center. […] Otherwise the cell pressure and volume were measured in a constant-height assay, as illustrated in FIG. 5B: the cantilever was first set at 14 μm height and placed over a metaphase cell to record rounding force. […] The maximal cross-section area of the cell was measured from the DIC or mCherry-CAAX image to calculate cell pressure and volume. […]

[11] = system: primary dopaminergic neurons from wild-type E14.5 embryos treated with PQ2+; details: 12.5 μM PQ2+ for 72 hours, 10 mM supplement
Method: Briefly, brain mesencephalons from E14.5 C57JBL6 or DJ-1 embryos were dissected under the microscope and digested with Trypsin-EDTA (Sigma-Aldrich). The trypsin reaction was stopped by adding the basic medium (BM) containing Neurobasal A medium (Gibco), 1 mg/ml penicillin/streptomycin, 10% (v/v) fetal calf serum (Invitrogen) and 2 mM L-glutamine and cells were mechanically dissociated using a fire-polished Pasteur pipette. Medium was fully replaced by centrifuging for 5 min. at 1200 rpm, aspiring the supernatant and adding 8 ml of the fresh BM to the pellet. […] The same volume of medium containing the different treatment substances was added 4 hours after plating to obtain the following treatment concentrations: control, 3 mM glucose, 10 mM GA, 10 mMDL and 10 mM LL. 24 hours later ⅓ of the medium was replaced with fresh BM. […]
as §4

SMILES: C[n+]1ccc(-c2cc[n+](C)cc2)cc1 [paraquat, reference compound]
- effect of paraquat on viability of glod-4 mutant larvae ([1]; glod-4, 200 μM paraquat): not affected
- effect of paraquat on viability of ΔΔdjr mutant larvae ([1]; ΔΔdjr, 200 μM paraquat): decreased viability
- effect of paraquat on mitochondrial structure (DJ-1 RNAi HeLa cells [2]; low doses of paraquat, DJ-1 RNAi HeLa cells): disrupted mitochondrial structure
- effect of paraquat on mitochondria of worm larvae ([3]; reproductive larvae of C. elegans): disrupted mitochondria

SMILES: CC(O)C(=O)O (stereo not shown) [lactic acid, 2-hydroxypropanoic acid]
- amount declared as harmless [4]: about 8 g/day

SMILES: OCCOCCO [diethylene glycol]
- minimum toxic dose [5]: 0.14 mg glycolic acid per kg of body weight

SMILES: C[C@H](O)C(=O)O [LL, L-(+)-lactic acid, reference compound]
- rescue of the reduced rounding pressure of mitotic DJ-1 RNAi cells (DJ-1 RNAi HeLa cells [6]): had no effect
- rescue of the reduced rounding pressure of mitotic DJ-1-deficient MEFs [7]: had no effect
- rescue of the lower pressure phenotype at 10 mM [7]: but not LL, rescued the lower pressure phenotype
- effect on pressure of mitotic WT MEFs (negative effects on cell mechanics) [7]: decreases pressure

SMILES: NC(=O)c1ccc(N)nc1 [6-aminonicotinamide, reference compound]
- effect on the glucose-mediated rescue of pressure in DJ-1 RNAi cells (DJ-1 RNAi HeLa cells [6]; mitotic HeLa, measured after 1 hour): inhibited

SMILES: O=C(O)CO [GA, 2-hydroxyethanoic acid]
- rescue of the lower pressure phenotype in low or no glucose medium (DJ-1 RNAi HeLa cells [6]): rescue of the lower pressure phenotype was observed
- rescue of the reduced rounding pressure of mitotic DJ-1 RNAi cells (DJ-1 RNAi HeLa cells [6]): could rescue the reduced pressure
- rescue of the lower pressure phenotype at 10 mM (DJ-1 RNAi HeLa cells [6]; measured after 1 hour): rescued the lower pressure phenotype
- rescue of the reduced rounding pressure of mitotic DJ-1-deficient MEFs [7]: could rescue the reduced pressure
- rescue of the lower pressure phenotype at 10 mM [7]: rescued the lower pressure phenotype
- effect on pressure of mitotic WT MEFs (negative effects on cell mechanics) [7]: decreases pressure
- restoration of viability of ΔΔdjr mutant larvae ([1]; in vivo): restored
- in vitro survival of dopaminergic (TH+) neurons [8]: stimulated; also recorded: stimulate the survival
- in vitro survival of dopaminergic (TH+) neurons ([8]; listed as Glycolate): support viability
- rescue of the circular mitochondrial phenotype (DJ-1 RNAi HeLa cells [2]): rescued
- rescue of the circular mitochondrial phenotype (DJ-1 RNAi HeLa cells [2]; listed as glycolate): rescue mitochondria structure
- reversal of circular mitochondria and diminished MitoTracker staining ([3]; paraquat-treated ΔΔdjr double mutant and glod-4 single mutant larvae): reversed
- survival of dopaminergic neurons from DJ-1 knock out mice [9]: could stimulate neuronal survival; also recorded: stimulate the survival
- rescue of the pressure phenotype in DJ-1 and GLO1 double knock-down cells [10]: could rescue

SMILES: NC(=O)CC[C@H](N)C(=O)O [glutamine, reference compound]
- rescue of the reduced rounding pressure of mitotic DJ-1 RNAi cells (DJ-1 RNAi HeLa cells [6]): neither pyruvate, which is produced from glucose, nor glutamine, which can enter the Krebs cycle, rescued the DJ-1 pressure phenotype

SMILES: C[C@@H](O)C(=O)O [DL, D-(−)-lactic acid]
- rescue of the toxic effect of paraquat on dopaminergic neurons [11]: significantly rescue the toxic effect of paraquat
- rescue of the lower pressure phenotype in low or no glucose medium (DJ-1 RNAi HeLa cells [6]): rescue of the lower pressure phenotype was observed
- rescue of the reduced rounding pressure of mitotic DJ-1 RNAi cells (DJ-1 RNAi HeLa cells [6]): could rescue the reduced pressure
- rescue of the lower pressure phenotype at 10 mM (DJ-1 RNAi HeLa cells [6]; measured after 1 hour): rescued the lower pressure phenotype
- rescue of the reduced rounding pressure of mitotic DJ-1-deficient MEFs [7]: could rescue the reduced pressure
- rescue of the lower pressure phenotype at 10 mM [7]: rescued the lower pressure phenotype
- in vitro survival of dopaminergic (TH+) neurons [8]: stimulated; also recorded: stimulate the survival
- in vitro survival of dopaminergic (TH+) neurons ([8]; listed as D-lactate): support viability
- rescue of the circular mitochondrial phenotype (DJ-1 RNAi HeLa cells [2]): rescued
- rescue of the circular mitochondrial phenotype (DJ-1 RNAi HeLa cells [2]; listed as D-lactate): rescue mitochondria structure
- survival of dopaminergic neurons from DJ-1 knock out mice [9]: could stimulate neuronal survival; also recorded: stimulate the survival
- rescue of the pressure phenotype in DJ-1 and GLO1 double knock-down cells [10]: could rescue

SMILES: CC(=O)C(=O)O [pyruvate, 2-oxopropanoic acid salt, reference compound]
- rescue of the reduced rounding pressure of mitotic DJ-1 RNAi cells (DJ-1 RNAi HeLa cells [6]): neither pyruvate, which is produced from glucose, nor glutamine, which can enter the Krebs cycle, rescued the DJ-1 pressure phenotype
- rescue of the circular mitochondrial phenotype (DJ-1 RNAi HeLa cells [2]): cannot rescue the circular phenotype
